Data as given in US11292767B2, “Heterocyclic inhibitors of MCT4” (Vettore, LLC, priority 2016, dated 2022).

Tests used:
[1] = biological target: MCT1 (Homo sapiens (Human), UniProt P53985); experiment: Assay 4: MCT1-mediated lactate transport in BT20 breast cancer cells; format: cell-based; conditions: lactate transport (Table 27)
Procedure: Preparing BCECF-Loaded Cells
10 µL of a 30 mM DMSO stock of BCECF-AM ester (Life Technologies) is added and the cells are incubated at 37° C. for 5 min. The cells are pelleted (300 g, 5 min), washed once with 1 mL Tyrode's Solution, pH 7.4, re-pelleted (300 g, 5 min), and resuspended in 1 mL Tyrode's Solution, pH 7.4.
Assay 4: MCT1-Mediated Lactate Transport in BT20 Breast Cancer Cells.
Preparation of BCECF loaded cells are as described for Assay 1. Lactate transport assay is as described for Assay 1, except 10 mM L-lactate (rather than 50 mM) is added.

[2] = Metabolic stability in human liver microsomes (in vitro t1/2); format: in vitro ADME; conditions: human liver microsomes 0.5 mg/mL, 2 μM compound; for Human microsome % 60 min: % remaining at 60 min
Procedure: (§1) Metabolic Stability Assays The following are assays that may be used to evaluate the metabolic stability of compounds of Formula (I) in human, rat, or mouse microsomes. The assays follow a common procedure recited below. 1. […] Two separated experiments were performed as follows. a) With NADPH: 10 μL of 20 mg/mL liver microsomes and 40 μL of 10 mM NADPH were added to the incubations. […] The final concentration of microsomes was 0.5 mg/mL. 3. The reaction was started with the addition of 4 μL of 200 μM control compound or test compound solutions. Verapamil was used as positive control in this study. The final concentration of test compound or control compound was 2 μM. 4. Aliquots of 50 μL were taken from the reaction solution at 0, 15, 30, 45 and 60 min. […] Samples were centrifuged at 3,220 g for 40 minutes. A 90 μL aliquot of the supernatant was mixed with 90 μL of ultra-pure H2O and then used for LC-MS/MS analysis. 5. Data analysis. All calculations were carried out using Microsoft Excel. Peak areas were determined from extracted ion chromatograms. The slope value, k, was determined by linear regression of the natural logarithm of the remaining percentage of the parent drug vs. incubation time curve. The in vitro half-life (in vitro t1/2) was determined from the slope value: in vitro t1/2=−(0.693)/k.

[3] = test system: CFA-induced arthritis; experiment: Adjuvant-induced arthritis model in rat: Difference of Weight Bearing test (DWB); format: in vivo; conditions: SD rat, PO 3 days post CFA, compared to dexamethasone
[4] = Metabolic stability in rat liver microsomes (in vitro t1/2); format: in vitro ADME; conditions: rat liver microsomes 0.5 mg/mL, 2 μM compound, % remaining at 60 min
Procedure: as §1

[5] = test system: CFA-induced arthritis; experiment: Adjuvant-induced arthritis model in rat: Mechanical Allodynia test (MA); format: in vivo; conditions: SD rat, PO 3 days post CFA, compared to dexamethasone
[6] = Pharmacokinetic assay in rat (IV 3 mg/kg, PO 10 mg/kg); format: in vivo; conditions: male, Sprague-Dawley, plasma, read-out: Rat F (%)
From the text: Pharmacokinetic Assays in Mouse and Rat
The following are assays that may be used to evaluate the pharmacokinetic properties of Formula (I) in mouse or rat. The assays follow a common procedure recited below.
1. […] For PO (oral gavage), DMSO/PEG400 (10:90). Formulations freshly prepared on the day of dosing or prior to dosing. Storage at room temperature.
2. Test Species: For Mouse: Male CD1 strain, approximately 6-8 weeks in age, approximately 20-30 g. For Rat: Male Sprague-Dawley strain, approximately 6-8 weeks in age, approximately 200-300 g.
3. Dose Level: For IV, 3 mg/kg. For PO, 10 mg/kg.
4. Number of animals: 3 per assay.
5. PK time points: For IV (plasma): 5 min, 15 min, 1, 2, 4, 6, 8, 24 h post dose. For PO (plasma): 15 min, 30 min, 1, 2, 4, 6, 8, 24 h post dose.
6. Blood Sample Collection and Processing. Blood was collected (˜0.2 mL per time point) from jugular vein. Blood of each sample was transferred into plastic micro centrifuge tubes containing anticoagulant of EDTA-K2. Blood samples were centrifuged at 2,000 g for 5 minutes at 4° C. to obtain plasma.
7. Samples Analysis: Plasma samples were analyzed using LC/MS/MS method, and pharmacokinetic parameters (half-life: t1/2; oral bioavailability: F; volume of distribution: Vss).

[7] = Metabolic stability in mouse liver microsomes (in vitro t1/2); format: in vitro ADME; conditions: mouse liver microsomes 0.5 mg/mL, 2 μM compound; for Mouse microsome % 60 min: % remaining at 60 min; for Mouse microsome t1/2, min: in vitro t1/2
Procedure: as §1

MCT1, sequence (P53985 whole entry): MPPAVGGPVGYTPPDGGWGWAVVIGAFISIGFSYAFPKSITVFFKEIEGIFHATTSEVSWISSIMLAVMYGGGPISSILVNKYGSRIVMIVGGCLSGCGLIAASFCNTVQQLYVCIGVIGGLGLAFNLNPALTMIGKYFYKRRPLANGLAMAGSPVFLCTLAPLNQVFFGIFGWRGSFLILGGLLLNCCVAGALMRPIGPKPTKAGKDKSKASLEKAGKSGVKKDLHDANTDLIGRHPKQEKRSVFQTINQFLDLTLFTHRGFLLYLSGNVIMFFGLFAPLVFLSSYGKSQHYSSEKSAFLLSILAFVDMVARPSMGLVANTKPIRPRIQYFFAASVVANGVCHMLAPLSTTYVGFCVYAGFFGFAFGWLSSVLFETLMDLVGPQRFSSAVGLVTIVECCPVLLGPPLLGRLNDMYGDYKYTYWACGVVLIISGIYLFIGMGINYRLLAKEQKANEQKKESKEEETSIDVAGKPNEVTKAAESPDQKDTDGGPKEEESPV
MCT1, sequence (P35613 140-385 partner): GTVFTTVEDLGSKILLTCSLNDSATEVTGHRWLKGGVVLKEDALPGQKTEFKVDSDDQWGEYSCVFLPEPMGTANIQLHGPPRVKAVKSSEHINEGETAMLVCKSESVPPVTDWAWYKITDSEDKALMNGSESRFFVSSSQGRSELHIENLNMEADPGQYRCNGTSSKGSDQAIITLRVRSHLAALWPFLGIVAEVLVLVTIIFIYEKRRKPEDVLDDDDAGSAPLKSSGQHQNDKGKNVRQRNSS

Row | SMILES | IC50 [1] [nM] | Human microsome % 60 min [2] [%] | Rat microsome % 60 min [4] [%] | bioavailability [6] [%] | Mouse microsome % 60 min [7] [%] | Mouse microsome t1/2, min [7] | Human microsome t1/2, min ([2]; in vitro t1/2) | Difference in Weight Bearing, Minimal Efficacious Dose [3] [mg/kg] | Mechanical Allodynia (Von Frey), Minimal Efficacious Dose [5] [mg/kg]
1 | CC(C)(OCc1cc(-c2cccc(CN3CCOCC3)c2)n(Cc2ccccc2Cl)n1)C(=O)O [Example 40, 2-([1-[(2-Chlorophenyl)methyl]-5-[3-(morpholinomethyl)phenyl]1H-pyrazol-3-yl]methoxy)-2-methylpropanoic acid] | > 100000 | – | – | – | – | – | – | – | –
2 | Cc1ccccc1-n1nc(COC(C)(C)C(=O)O)cc1-c1cccc(OC2CCC2)c1 [Example 161, 2-([5-(3-Cyclobutoxyphenyl)-1-(2-methylphenyl)-1H-pyrazol-3-yl]-methoxy)-2-methylpropanoic acid] | – | 82 | 80 | 61 | 99 | ∞ | – | ≤10 | ≤10
3 | CC(C)(OCc1cc(-c2cccc(OC3CCC3)c2)n(-c2ccccc2Cl)n1)C(=O)O [Example 175, 2-([1-(2-Chlorophenyl)-5-(3-cyclo-butoxyphenyl)-1H-pyrazol-3-yl]-methoxy)-2-methylpropanoic acid] | – | 83 | 87 | 48 | 94 | – | – | >10 | >10
4 | COc1cc(OC)cc(-c2cc(COC(C)(C)C(=O)O)nn2-c2ccccc2Cl)c1 [Example 179, 2-([1-(2-Chlorophenyl)-5-(3,5-dimethoxyphenyl)-1H-pyrazol-3-yl]-methoxy)-2-methylpropanoic acid] | – | 93 | 85 | 76 | 98 | ∞ | – | ≤10 | ≤10
5 | CCOc1cc(OCC)cc(-c2cc(COC(C)(C)C(=O)O)nn2-c2ccccc2Cl)c1 [Example 180, 2-([1-(2-Chlorophenyl)-5-(3,5-diethoxy-phenyl)-1H-pyrazol-3-yl]methoxy)-2-methylpropanoic acid] | – | 88 | 98 | 49 | – | ∞ | – | >10 | >10
6 | Cn1ncc2cccc(-n3nc(COC(C)(C)C(=O)O)cc3-c3cccc(OC4CC4)c3)c21 [Example 191, 2-([5-(3-Cyclopropoxyphenyl)-1-(1-methyl-1H-indazol-7-yl)-1H-pyrazol-3-yl]methoxy)-2-methylpropanoic acid] | – | 98 | 94 | 97 | 97 | – | – | >10 | >10
7 | CC(C)(OCc1cc(-c2cccc(OC3CC3)c2)n(Cc2ccccc2N2CCCC2)n1)C(=O)O [Example 202, 2-([5-(3-Cyclopropoxyphenyl)-1-[[2-(pyrrolidin-1-yl)phenyl]methyl]-1H-pyrazol-3-yl]methoxy)-2-methylpropanoic acid] | – | 32 | 2 | – | 32 | – | – | – | –
8 | CC(C)(OCc1cc(-c2cccc(OC3CC3)c2)n(-c2ccccc2N2CCCC2)n1)C(=O)O [Example 221, 2-([5-(3-Cyclopropoxyphenyl)-1-[2-(pyrrolidin-1-yl)phenyl]-1H-pyrazol-3-yl]methoxy)-2-methylpropanoic acid] | – | 56 | 33 | – | 34 | – | – | – | –
9 | CC[C@@](C)(OCc1cc(-c2cc(OC)cc(OC)c2)n(-c2ccccc2Cl)n1)C(=O)O [Example 222, (2R)-2-([1-(2-Chlorophenyl)-5-(3,5-dimethoxyphenyl)-1H-pyrazol-3-yl]-methoxy)-2-methylbutanoic acid] | – | 110 | 90 | – | 94 | – | ∞ | – | –
10 | COc1cc(OC)cc(-c2cc(COC(C)(C)C(=O)O)nn2Cc2ccccc2Cl)c1 [Example 224, 2-([1-[(2-Chlorophenyl)methyl]-5-(3,5-dimethoxyphenyl)-1H-pyrazol-3-yl]-methoxy)-2-methylpropanoic acid] | – | 91 | 73 | 53 | 98 | – | – | ≤10 | ≤10
11 | CCOc1cccc(-n2nc(COC(C)(C)C(=O)O)cc2-c2cc(OC)cc(OC)c2)c1 [Example 243, 2-([5-(3,5-Dimethoxyphenyl)-1-(3-ethoxyphenyl)-1H-pyrazol-3-yl]-methoxy)-2-methylpropanoic acid] | – | 88 | 88 | – | 97 | – | – | – | –
12 | COc1cc(OC)cc(-c2cc(COC(C)(C)C(=O)O)nn2-c2ccccc2N2CCC2)c1 [Example 251, 2-((1-(2-(Azelidin-1-yl)phenyl)-5-(3,5-dimethoxyphenyl)-1H-pyrazol-3-yl)methoxy)-2-methylpropanoic acid] | – | 77 | 83 | 98 | 63 | – | – | – | –

Second part, led by results:

Row | IC50 [1] [nM] | Human microsome % 60 min [2] [%] | Rat microsome % 60 min [4] [%] | bioavailability [6] [%] | Mouse microsome % 60 min [7] [%] | Mouse microsome t1/2, min [7] | Human microsome t1/2, min ([2]; in vitro t1/2) | SMILES | Difference in Weight Bearing, Minimal Efficacious Dose [3] [mg/kg] | Mechanical Allodynia (Von Frey), Minimal Efficacious Dose [5] [mg/kg]
13 | > 100000 | – | – | – | – | – | – | CC(C)(OCc1cc(-c2ccsc2)n(Cc2ccccc2Cl)n1)C(=O)O [Example 24, 2-([1-[(2-Chlorophenyl)methyl]-5-(thien-3-yl)1H-pyrazol-3-yl]methoxy)-2-methylpropanoic acid] | – | –
14 | > 11000 | – | – | – | – | – | – | CC(C)(OCc1cc(-c2cccc(OC(F)(F)F)c2)n(Cc2ccccc2Cl)n1)C(=O)O [Example 34, 2-([1-[(2-Chlorophenyl)methyl]-5-[3-(trifluoromethoxy)phenyl]1H-pyrazol-3-yl]methoxy)-2-methylpropanoic acid] | – | –
15 | – | 80 | 82 | – | 84 | – | – | CCOc1ccccc1Cn1nc(COC(C)(C)C(=O)O)cc1-c1ccc2cnn(CC)c2c1 [Example 198, 2-([1-[(2-Ethoxyphenyl)methyl]-5-(1-ethyl-1H-indazol-6-yl)-1H-pyrazol-3-yl]methoxy)-2-methylpropanoic acid] | – | –
16 | – | 58 | 39 | – | 58 | – | – | CCOc1ccccc1Cn1nc(COC(C)(C)C(=O)O)cc1-c1cccc(OC2CC2)c1 [Example 201, 2-([5-(3-Cyclopropoxyphenyl)-1-[(2-ethoxyphenyl)methyl]-1H-pyrazol-3-yl]-methoxy)-2-methylpropanoic acid] | – | –
17 | – | 95 | 88 | – | 95 | – | – | Cn1ncc2ccc(-c3cc(COC(C)(C)C(=O)O)nn3Cc3ccccc3Cl)cc21 [Example 226, 2-([1-[(2-Chlorophenyl)methyl]-5-(1-methyl-1H-indazol-6-yl)-1H-pyrazol-3-yl]methoxy)-2-methylpropanoic acid] | – | –
18 | – | 65 | 69 | 52 | 81 | – | – | CCCn1ncc2ccc(-c3cc(COC(C)(C)C(=O)O)nn3-c3ccccc3N3CCC3)cc21 [Example 246, 2-([1-[2-(Azetidin-1-yl)phenyl]-5-(1-propyl-1H-indazol-6-yl)-1H-pyrazol-3-yl]methoxy)-2-methylpropanoic acid] | – | –
